Measured values reported in patent US11299467B2 (Antabio SAS, priority 2017, dated 2022).
Converted amounts (≈) assume the structure as drawn.

Tests used:
Format in all cases: cell-based
[1] = system: NTBC020 (E. coli strain expressing NDM-1, TEM-1 and CTX-M-15); test: Meropenem MIC, broth micro-dilution, NTBC020; conditions: Escherichia coli, read-out: MIC mero
Procedure: (§1) The experiments were carried out using the ‘broth micro-dilution method’ according to the protocols M07-A8 established by the Clinical Laboratory Standards Institute (CLSI). Serial dilutions of the β-lactam antibiotic (Meropenem) were prepared in 96-well plates in cation-adjusted Mueller-Hinton broth (CAMHB); the concentration range was defined from 0.03 mg/L to 512 mg/L. The compounds were added at a constant concentration of 8 μg/mL. A bacterial inoculum of each strain (clinical isolates) was adjusted to a 0.5 McFarland turbidity standard in physiologic serum (0.9% NaCl), then diluted 1:100 in CAMHB and added to each well to give a final bacterial cell number of 5×10^5 CFU/well. After incubation for 18-20 hours in a heating chamber at 37° C., the growth inhibition was evaluated by the absence of any bacterial development.
(§2) Compounds of the invention were tested at a constant concentration of 8 μg/mL. […]
(§3) Experiments were carried out using the ‘broth micro-dilution method’ according to the protocols M07-A8 established by the Clinical Laboratory Standards Institute (CLSI). […] After incubation for 18-20 hours in a heating chamber at 37° C., the growth inhibition was evaluated by the absence of any bacterial development. […]

[2] = system: NTBC035-2 (K. pneumoniae strain expressing NDM-1, CMY-4 and SHV-11); test: Meropenem MIC, broth micro-dilution, NTBC035-2; conditions: Klebsiella pneumoniae, read-out: MIC mero
Procedure: as §1, §2, §3

[3] = system: NTBC055 (E. Coli strain expressing VIM-1); test: Meropenem MIC, broth micro-dilution, NTBC055; conditions: Escherichia coli, read-out: MIC mero
Procedure: as §1, §2, §3

[4] = system: NTBC091-1 (E. coli strain expressing KPC-2 and TEM-1); test: Meropenem MIC, broth micro-dilution, NTBC091-1; conditions: Escherichia coli, read-out: MIC mero
Procedure: as §1, with “Experiments” for “The experiments”, “meropenem (mero)” for “the β-lactam antibiotic (Meropenem)”, “compounds (the compound of Example 2, above, and/or WCK4234)” for “compounds”, “the” for “a constant”, “indicated in the table below.” for “of 8 μg/mL.”
(§4) NTBC091-1 (E. coli strain expressing KPC-2 and TEM-1); NTBC093 (E. cloacae strain expressing KPC-2 and TEM-1); NTBC096-1 (K. pneumonia strain expressing OXA-181 and SHV-11); NTBC099 (K. pneumonia strain expressing KPC-3, SHV-11 and TEM-1); and NTBC189 (K. pneumonia strain expressing TEM-OSBL, CTX-M-14 and OXA-48).

[5] = system: NTBC093 (E. cloacae strain expressing KPC-2 and TEM-1); test: Meropenem MIC, broth micro-dilution, NTBC093; conditions: Enterobacter cloacae, read-out: MIC mero
Procedure: as §1, with “Experiments” for “The experiments”, “meropenem (mero)” for “the β-lactam antibiotic (Meropenem)”, “compounds (the compound of Example 2, above, and/or WCK4234)” for “compounds”, “the” for “a constant”, “indicated in the table below.” for “of 8 μg/mL.”
as §4

[6] = system: NTBC096-1 (K. pneumonia strain expressing OXA-181 and SHV-11); test: Meropenem MIC, broth micro-dilution, NTBC096-1; conditions: Klebsiella pneumoniae, read-out: MIC mero
Procedure: as §1, with “Experiments” for “The experiments”, “meropenem (mero)” for “the β-lactam antibiotic (Meropenem)”, “compounds (the compound of Example 2, above, and/or WCK4234)” for “compounds”, “the” for “a constant”, “indicated in the table below.” for “of 8 μg/mL.”
as §4

[7] = system: NTBC099 (K. pneumonia strain expressing KPC-3, SHV-11 and TEM-1); test: Meropenem MIC, broth micro-dilution, NTBC099; conditions: Klebsiella pneumoniae, read-out: MIC mero
Procedure: as §1, with “Experiments” for “The experiments”, “meropenem (mero)” for “the β-lactam antibiotic (Meropenem)”, “compounds (the compound of Example 2, above, and/or WCK4234)” for “compounds”, “the” for “a constant”, “indicated in the table below.” for “of 8 μg/mL.”
as §4

[8] = system: NTBC186 (K. pneumonia strain expressing ACT-TYPE, VIM-1 and OXA-48); test: Meropenem MIC, broth micro-dilution, NTBC186; conditions: Klebsiella pneumoniae, read-out: MIC mero
Procedure: as §1, with “Experiments” for “The experiments”, “meropenem (mero)” for “the β-lactam antibiotic (Meropenem)”, “compounds (the compound of Example 2, above, and/or WCK4234)” for “compounds”, “the” for “a constant”, “indicated in the table below.” for “of 8 μg/mL.”
(§5) NTBC019 (K. pneumonia strain expressing NDM-1, CTX-M-15 and OXA-181); NTBC185 (K. pneumonia strain expressing SHV-OSBL, TEM-OSBL, NDM-1 and OXA-48); NTBC186 (K. pneumonia strain expressing ACT-TYPE, VIM-1 and OXA-48); NTBC187 (K. pneumonia strain expressing SHV-OSBL, NDM-1 and OXA-48); and NTBC188 (K. pneumonia strain expressing NDM-1 and KPC-2).

[9] = system: NTBC187 (K. pneumonia strain expressing SHV-OSBL, NDM-1 and OXA-48); test: Meropenem MIC, broth micro-dilution, NTBC187; conditions: Klebsiella pneumoniae, read-out: MIC mero
Procedure: as §1, with “Experiments” for “The experiments”, “meropenem (mero)” for “the β-lactam antibiotic (Meropenem)”, “compounds (the compound of Example 2, above, and/or WCK4234)” for “compounds”, “the” for “a constant”, “indicated in the table below.” for “of 8 μg/mL.”
as §5

[10] = system: panel of clinical Enterobacteriacae strains expressing NDM enzymes (196 isolates); test: Extended MIC profiling vs MBL-expressing clinical strains (meropenem potentiation); conditions: 196 NDM-expressing clinical isolates
Text: By contrast, the same concentration of meropenem alone is only capable of stopping the growth of <1% of the strains and within the parameters of the experiment the cessation of growth of 90% of all strains could not be achieved with meropenem alone.
To assess the coverage and potentiation of meropenem by compounds of the invention, the susceptibility of around 200 clinical isolates was examined. The criteria for selection into the panel was that the clinical strain was resistant to carbapenems, but only expressing NDM enzyme variants and not serine betalactamase enzymes with carbapenemase activity such as KPC or OXA.

Q: What does the source list for `C[C@@H](O)[C@H]1C(=O)N2C(C(=O)O)=C(S[C@@H]3CN[C@H](C(=O)N(C)C)C3)[C@H](C)[C@H]12` [Meropenem]?
A: MIC [1]: 128 µg/mL; MIC [2]: 64 µg/mL; MIC [3]: 4 µg/mL; MIC [4]: 4 µg/mL (≈ 10.4 µM); MIC [5]: 128 µg/mL (≈ 334 µM); MIC [6]: 16 µg/mL (≈ 41.7 µM); MIC [7]: 128 µg/mL (≈ 334 µM); MIC [8]: 16 µg/mL (≈ 41.7 µM); MIC [9]: 128 µg/mL (≈ 334 µM); strains whose growth is stopped by the same concentration (8 ug/mL) of meropenem alone [10]: < 1%
